Where two headings read alike, the source gives them in different places.
Assays:
[1] = system: Lepidoptera; assay: Activity against Lepidoptera / pest spectrum (in words); format: in vivo
[2] = system: Bean aphids; details: bean aphid, in vivo, 48 h
[3] = system: powdery mildew fungus (Erysiphe Polygoni); assay: Bean Powdery Mildew eradicant test; format: in vivo; details: Table III; 200 ppm
[4] = system: Corn rootworm larvae; details: in vivo, 120 h
[5] = system: bean rust fungus (Uromyces Phaseoli); assay: Bean Rust eradicant test; format: in vivo; details: Table III; 200 ppm
Description: In these tests, the experimental compounds were tested in aqueous emulsions, prepared in the same manner as was previously described above with respect to the insecticidal and miticidal tests.
Pinto bean plants with fully expanded primary leaves were inoculated with spores of the bean rust fungus (Uromyces Phaseoli) and incubated for 24 hours. The test were then carried out as described above for Bean Powdery Mildew.

[6] = system: bean rust fungus (Uromyces Phaseoli); assay: Bean Rust systemic eradicant test; format: in vivo; details: Table III; 200 ppm
Description: Pinto bean plants were inoculated 24 hours prior to use as above and the soil in the pot was then treated with 20 ml. of an emulsion of the test chemical. The rest of the test and the evaluation were then carried out an above for Bean Powdery Mildew.

[7] = in vivo; details: rat, po
[8] = system: Corn rootworm larvae; assay: whole plant or invertebrate; details: soil, 120 h
[9] = system: Spider mites; details: spider mite, in vivo, 48 h
[10] = system: Mexican bean beetle; details: in vivo
[11] = system: Southern army worm; details: in vivo
[12] = system: Root-knot nematode; details: in vivo
[13] = system: Spider mites; assay: whole plant or invertebrate; details: Tetranychus urticae; for mortality at 10 ppm: read-out: Spider Mites Mortality,%
[14] = system: Mexican bean beetle; assay: whole plant or invertebrate; details: Epilachna varivestis
[15] = system: Sclerotium; assay: Sclerotium soil fungicide test; format: in vivo; details: Table III; 100 lb/acre
Description: Sterilized soil was inoculated with Solerotium and placed into a 4-ounce "Dixie cup", and drenched with 20 ml. of an emulsion of the test chemical. The cup was then incubated for 2 days at 70° F. Thereafter, the amount of mycelial growth on the soil surface was rated and the control by the chemical estimated accordingly.

[16] = system: Bean aphids; assay: whole plant or invertebrate; details: Aphis fabae, 48 h
[17] = system: warm blooded animals; assay: Toxicity towards warm blooded animals (in words); format: in vivo; details: summary statements
Description: Each compound tested was administered orally by stomach tube to five to eight groups of five male albino rate of the Sprague Dawley strain, weighing 220 to 300 grams at various dosage levels. Following incubation, the animals were closely observed for mortality and toxic effects at intervals for 14 days. Statistical analysis of the mortality data was carried out to determine the median lethal dosages (LD50) according to the method of W. R. Thompson as described in the Journal Bact. Rev. in Vol. 11, pages 115-145 in 1947, utilizng the tables of H. J. Horn published in the Journal Biometrics, Vol. 12, page 311 in 1956. The LD50 dosages are expressed in mg weights of test material per kg weight of rat used.

[18] = system: insects, mites and nematodes; assay: Overall pesticidal activity in the greenhouse and laboratory tests (in words); format: in vivo
Description: In Examples 14-29 which follow, the new dithiophosphate compositions of the present invention were tested in the greenhouse and in the laboratory to determine their biological activity. Structurally related, known compounds, usually leading cmmercial compounds, were also tested side-by-side to determine the relative pesticidal effectiveness of the new compounds.
In the insecticidal and miticidal tests, the experimental compounds were tested as aqueous emulsions. These emulsions were prepared by dissolving the compound in acetone and dispersing it in distilled water with Triton X-100, an alkylaryl polyether alcohol derived by the reaction of i-octylphenol with ethylene oxide, to give spray emulsions containing the desired concentrations of the compound. These emulsions were then used in standard laboratory tests described below.

[19] = system: House fly; assay: whole plant or invertebrate; details: Musca domestica, 48 h, read-out: Mortality Produced at 50 ppm, % - Houseflies
[20] = read-out: Corn Rootworm Mortality,%
[21] = read-out: Mexican Bean Beetles Mortality,%
[22] = read-out: Bean Aphids Mortality,%

Row | Structure (SMILES) | LD50 at 336 h [7] | mortality at 2.5 ppm [8, 20] | S.Armyworm Mortality,% [11] | Nematode Control,% [12] | mortality at 10 ppm [13] | mortality at 50 ppm [14, 21] | mortality at 50 ppm [16, 22] | also measured
1 | CCCSP(=O)(OCC)SCC(C)SC(C)=O (stereo not drawn) [Example 13, O:ETHYL S-1-PROPYL S-2-ACETYLTHIOPROPYL DITHIOPHOSPHATE] |  |  |  |  |  |  |  | pesticidal spectrum / activity against Lepidoptera [1]: shows the broad pesticidal spectrum and the specific activity against Lepidoptera
2 | CCCSP(=O)(OCC)SCC(C)SCC (stereo not drawn) [Example 33, O-Ethyl S-1-Propyl S'-2-Ethylthiopropyl Dithiophosphate] | 214 mg/kg | 100% | 100% | 100% | 100% | 70% | 100% | Pest Control, % - Bean Aphids Contact [2]: 100%; Control of Foliar Fungi, % - Bean Mildew Eradicant [3]: 70%; Pest Control, % - Corn Rootworm (0.25 ppm) [4]: 100%; Control of Foliar Fungi, % - Bean Rust Eradicant [5]: 80%; Control of Foliar Fungi, % - Bean Rust Systemic Eradicant [6]: 90%; Pest Control, % - Spider Mites Contact [9]: 100%; Pest Control, % - Mex. Bean Beetle [10]: 100%; Pest Control, % - Nematode Control (25 lb/acre) [12]: 100%; Control of Sclerotium, % [15]: 60%
3 | CCCSC(C)CSP(=O)(OCC)SCCC (stereo not drawn) [Example 34, O-Ethyl S-1-Propyl S'-2-n-Propylthiopropyl Dithiophosphate] | 422 mg/kg | 100% | 100% | 100% | 100% | 100% | 100% | toxicity (in words) [17]: particularly low toxicity
4 | CCCCCCSC(C)CSP(=O)(OCC)SCCC (stereo not drawn) [Example 36, O-Ethyl S-1-Propyl S'-2-n-Hexylthiopropyl Dithiophosphate] |  | 0% | 100% | 10% | 90% | 100% | 50% | pesticidal activity (in words) ([18]; summary statements): decreased level of activity
5 | CCCSP(=O)(OCC)SCC(SC)C(C)(C)C (stereo not drawn) [Example 39, O-Ethyl S-1-Propyl S'-2-Methylthio-3,3-Dimethylbutyl Dithiophosphate] |  |  |  |  |  |  |  | insecticidal activity at 50 ppm (in words) ([18]; 50 ppm): very little insecticidal activity; mortality at 2.5 ppm ([8]; read-out: Corn Rootworm Mortality, % at 2.5 ppm): 80%; mortality at 50 ppm [19]: 20%; Mortality Produced at 50 ppm, % - Southern Army Worm ([11]; southern armyworm): 0%; mortality at 50 ppm ([13]; read-out: Mortality Produced at 50 ppm, % - Spider Mites): 100%; mortality at 50 ppm ([14]; read-out: Mortality Produced at 50 ppm, % - Mexican Bean Beetles): 0%; mortality at 50 ppm ([16]; read-out: Mortality Produced at 50 ppm, % - Bean Aphids): 30%
